Measurements reported in patent publication US20250049795A1, “USE OF 5-(2-((5-(4-(DIMETHYLAMINO)PIPERIDIN-1-YL)PYRIDIN-2-YL)AMINO)-5-FLUOROPYRIMIDIN-4-YL)-N,4-DIMETHYLTHIAZOL-2-AMINE IN COMBINATION THERAPIES FOR CANCER” (Aucentra Therapeutics Pty Ltd, priority 2022, published 2025).
“Also recorded” adds a separate entry of the source.

Tests used:
CDK4/cyclin D1 = biological target: T1, CDK4/cyclin D1 (Homo sapiens, UniProt P11802); experiment: CDK inhibition, kinase assay (radiometric / ADP Glo); type: biochemical
T1 construct: purchased Eurofins Pharma Discovery or Reaction Biology Corporation (radiometric service)
T1 sequence (P11802 whole entry): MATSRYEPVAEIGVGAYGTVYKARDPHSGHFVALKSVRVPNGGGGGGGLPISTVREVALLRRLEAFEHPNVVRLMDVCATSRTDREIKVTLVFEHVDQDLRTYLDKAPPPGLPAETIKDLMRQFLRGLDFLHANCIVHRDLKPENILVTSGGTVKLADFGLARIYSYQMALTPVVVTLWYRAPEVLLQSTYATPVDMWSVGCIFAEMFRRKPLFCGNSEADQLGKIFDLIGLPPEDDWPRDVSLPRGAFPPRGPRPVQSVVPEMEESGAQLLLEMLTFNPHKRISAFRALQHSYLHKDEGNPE
T1 sequence (P24385 whole entry partner): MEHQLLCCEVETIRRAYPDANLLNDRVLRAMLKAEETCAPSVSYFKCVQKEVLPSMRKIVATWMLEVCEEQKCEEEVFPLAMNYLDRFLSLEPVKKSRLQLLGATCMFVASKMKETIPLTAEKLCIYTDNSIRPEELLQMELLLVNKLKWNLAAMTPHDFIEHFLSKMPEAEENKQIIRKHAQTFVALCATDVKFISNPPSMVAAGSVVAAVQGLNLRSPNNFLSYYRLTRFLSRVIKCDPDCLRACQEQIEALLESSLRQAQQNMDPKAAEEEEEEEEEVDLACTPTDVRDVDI
Experimental: Serial dilutions of 1:3 were prepared for test compounds for 10 concentrations (from 10 μM to 0.5 nM). […] Positive and negative controls were performed in the presence and absence of CDK kinases, respectively. Half-maximal inhibition (IC50) values were calculated using a 4-parameter logistic non-linear regression model with Graphpad prism (Version 6.0). Apparent inhibition constants (Ki) values were calculated from Km (ATP) and IC50 values for the respective kinases.

[1] = system: other members of CDK family; experiment: Kinase profiling of CDK family; type: biochemical
Experimental: Eurofins Pharma Discovery or Reaction Biology Corporation Kinase Profiler services were used to measure inhibition of CDKs and other kinases by radiometric assay (RIA). Inhibition of CDK4/cyclin D1, CDK6/cyclin D3 and CDK9/cyclin T1 were also determined using ADP Glo Kinase assays (Promega Corporation, Madison WI, United States of America). Briefly, the kinase reaction for CDK4/cyclin D1 and CDK6/cyclin D3 was performed with kinase reaction buffer ([…] Tris base pH 7.5, 20 mM MgCl2, 0.4 mM DTT), 0.1 mg/ml BSA and RB-CTF substrate (retinoblastoma protein1 C-terminal fraction). For CDK9/cyclin T1, the kinase reaction was performed with standard assay buffer and Kinase Dilution Buffer and RBER-IRStide substrate. Serial dilutions of 1:3 were prepared for test compounds for 10 concentrations (from 10 μM to 0.5 nM). The kinase reactions were started by addition of ATP, incubated for 40 min at […] and then stopped by adding 10 μL of ADP Glo reagent. […] Luminescence was measured using an EnVision Multilabel plate reader (PerkinElmer, Buckinghamshire, United Kingdom). […] Half-maximal inhibition (IC50) values were calculated using a 4-parameter logistic non-linear regression model with Graphpad prism (Version 6.0). Apparent inhibition constants (Ki) values were calculated from Km (ATP) and IC50 values for the respective kinases.

[2] = system: CT26.WT colorectal cancer cells; experiment: In vivo anti-tumour activity in mice with a colorectal cancer syngeneic allograft; design: species or system mouse
Experimental: Murine triple-negative breast cancer EMT6 tumour cells (ATCC® CRL-2755™) and colorectal cancer CT26.WT cells (ATCC® CRL-2638™) were cultured and expanded in RPMI-1640 medium (Roswell Park Memorial Institute Medium-1640) with L-glutamine and sodium bicarbonate (Sigma-Aldrich, Macquarie Park, NSW, Australia) supplemented with 10% heat-inactivated foetal bovine serum (FBS). Cells were cultured in an incubator at 5% CO2 37° C.
(§1) CT26.WT colorectal cancer cells were harvested and re-suspended in a 1:1 mixture of Matrigel™ (#354234; Corning Life Sciences, Corning, NY, United States of America) and serum-free RPMI-1640 medium, and thereafter injected sub-cutaneously (sc) (7×10^5 cells in a volume of 100 μL) into the right flank of each female BALB/c mouse. After the tumour volume reached ˜100 mm^3, the mice were randomised into two groups (n=8/group) and given vehicle (1% CMC in water), compound 1 (150 mg/kg) once daily by oral administration (QD PO), Anti-PD1 (RMP1-14-derived mouse monoclonal antibody, Assay Matrix, Australia; […]) by intraperitoneal (ip) administration, or compound 1 plus anti-PD-1 antibody (FIG. 1).

[3] = system: T cell populations (CD3+, CD8+); experiment: Flow cytometry study of immune profiles in CT26.WT syngeneic mouse model; type: in vivo; settings: day 14 of dosing, 3 mice of each group
Description: FIG. 2 provides further graphical results showing the in vivo anti-tumour efficacy of compound 1 in the CT26.WT syngeneic mouse model through activation of immunity. In the experiment, on day 14 of dosing, 3 mice of each group were sacrificed for flow cytometry study of immune profiles.
as §1, with “1). Compound 1 achieved significant tumour growth inhibition with a T/C=24% when used alone, and T/C=14% when used in the combination with the anti-PD-1 antibody, as measured on day 14 of dosing (FIG. 1).” for “1).”

Compound: CNc1nc(C)c(-c2nc(Nc3ccc(N4CCC(N(C)C)CC4)cn3)ncc2F)s1 [Compound 1, 5-(2-((5-(4-(dimethylamino)piperidin-1-yl)pyridin-2-yl)amino)-5-fluoropyrimidin-4-yl)-N,4-dimethylthiazol-2-amine]
- selectivity for CDK4 over CDK6 (CDK4/cyclin D1): 140 fold
- activity against other members of CDK family [1]: no activity
- extended survival of animals ([2]; BALB/c mice, CT26.WT allograft, compound 1 150 mg/kg QD PO, anti-PD1 ip, p<0.001): 60%
- survival of the mice (in words) ([2]; BALB/c mice, CT26.WT allograft, p<0.001): significantly prolong the survival
- tumor volume in treatment vs control ratio (T/C) ([2]; female BALB/c mice, sc CT26.WT allograft, day 14 of dosing, compound 1 150 mg/kg QD PO, Anti-PD1 150 g/mouse/wk ip): 24%
- T cell populations (% CD3+ and % CD8+) in spleen, blood and tumour samples [3]: increased T cell populations; also recorded: increased level
